Like-named read-outs stand apart in the source and are kept apart here.
How the values were obtained:
[1] = target: T1, truncated form of human Choline kinase α1 that includes residues 75-457 (Homo sapiens, UniProt P35790); experiment: Kinase Assay, coupled (ATP regeneration) LDH/PK assay, NADH absorbance; assay type: biochemical
T1 construct: made in house
Protocol: Absorbance of NADH (340 nm) was measured over 30 min using a SpectraMax M5 (Molecular Devices). Initial reaction velocity (ΔA340/Δt) was calculated and plotted as a function of inhibitor concentration in a 2-fold dilution series. IC50 values were obtained by fitting the relative velocities to a dose-response model.

ChoKα protein = target: T2, ChoKα protein (Homo sapiens, UniProt P35790); experiment: Binding affinity by surface plasmon resonance (SensiQ Pioneer, FastStep)
T2 construct: made in house
T2 sequence (P35790 75-457): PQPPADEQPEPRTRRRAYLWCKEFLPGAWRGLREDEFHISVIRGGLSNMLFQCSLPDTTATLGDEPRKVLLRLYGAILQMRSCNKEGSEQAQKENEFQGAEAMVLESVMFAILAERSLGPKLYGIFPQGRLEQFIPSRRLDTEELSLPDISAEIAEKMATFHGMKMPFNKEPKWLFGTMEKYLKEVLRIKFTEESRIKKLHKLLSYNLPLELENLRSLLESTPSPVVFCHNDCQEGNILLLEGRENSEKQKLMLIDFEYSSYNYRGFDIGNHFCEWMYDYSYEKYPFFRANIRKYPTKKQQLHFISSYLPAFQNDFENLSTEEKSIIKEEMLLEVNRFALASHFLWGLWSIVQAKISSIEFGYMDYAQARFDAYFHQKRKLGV
Protocol: KD may be measured using surface plasmon resonance (BIAcore®) technology, see, e.g., Panayotou et al, Mol. Cell. […] ChoKα protein was immobilized by standard amine coupling methods on a COOH5 sensor chip installed in a SensiQ Pioneer system. Sensograms were measured using the FastStep™ screen method with an upper concentration of 500 nM. Kinetics and affinity were obtained from fits using a 1:1 binding model.

cancer cell lines = experiment: Cellular Growth Inhibition Assay (CyQuant Cell Proliferation Assay Kit); assay type: cell-based
Protocol: Cellular Growth Inhibition AssayVehicle or compound treated cells were assessed for cell growth after 72 hours of treatment using the CyQuant® Cell Proliferation Assay Kit (Life Technologies, Grand Island, N.Y.). […] Data are shown as mean (±SD) from ≧2 separate experiments.

[2] = system: phosphocholine levels in MDA-MB-468 cells; experiment: Phosphocholine Assay (1H-NMR) in MDA-MB-468 cells; assay type: cell-based; settings: Homo sapiens, 24 hours of treatment, read-out: IC50 of pCh
Protocol: (§1) 5×10^6 cells of each line were grown in the presence of increasing concentration of the test compound or vehicle (DMSO) for 24 hours, then counted and viability checked by Trypan Blue Exclusion protocol. 5×10^6 viable cells were washed twice in ice cold D-PBS, then solubilized by vortexing for 30 seconds in 6 mL ice cold 100% methanol. 6 mL of chloroform and 6 mL of water were added and the mixture vortexed again. After centrifugation for 10 minutes @ 5,220 rpms, 10 mL of the aqueous phase is removed and lyophilized. The samples were analyzed by ^1H-NMR to determine phosphocholine levels.
Similarly, dose dependent inhibition of phosphocholine levels in MDA-MB-468 cells by the compound provided in Example 45 was determined by ^1H-NMR analysis after 24 hours of treatment with increasing concentrations consisting of 0.1 μM, 1.0 μM, 10 μM, 20 μM, and 80 μM. By this method, the IC50 of pCh was determined to be 3 μM of the compound provided in Example 45.

[3] = system: phosphocholine levels in MDA-MB-415 cells; experiment: Phosphocholine Assay (1H-NMR) in MDA-MB-415 cells; assay type: cell-based; settings: Homo sapiens, 24 hours of treatment, read-out: IC50 of pCh
Protocol: as §1
Dose dependent inhibition of phosphocholine levels in MDA-MB-415 cells by the compound provided in Example 55 was determined by ^1H-NMR analysis after 24 hours of treatment with increasing concentrations consisting of 0.25 μM, 0.50 μM, 1.0 μM, 2.0 μM, 4.0 μM, 8.0 μM and 16 μM.

T1 sequence (P35790 75-457): as above

Row | SMILES | IC50 [1] [nM] | Kd (ChoKα protein) [nM] | GI50 (cancer cell lines; 72 h) [nM] | IC50 [2] [nM] | IC50 [3] [nM] | IC50 ([1]; Examples not designated with an asterisk, footnote prints version 1 of the Kinase Assay, read-out: IC50) [nM] | Kd (ChoKα protein; SPR, 1:1 binding model, upper concentration 500 nM, read-out: Kd) [nM] | GI50 (cancer cell lines; 72 hours of treatment, cell line not named, read-out: GI50) [nM]
1 | CN1CCCN(Cc2ccc(-c3ccc(CN4CCCN(C)CC4)cc3)cc2)CC1 [Example 45, 4,4′-bis((4-methyl-1,4-diazepan-1-yl)methyl)-1,1′-biphenyl] | < 200 | < 60000 | < 5000 | 3000 | – | – | – | –
2 | CN1CCCN(Cc2ccc(-c3ccc(CN4CCCN(C)CC4)cc3C#N)c(F)c2)CC1 [Example 55, 2′-fluoro-4,4′-bis((4-methyl-1,4-diazepan-1-yl)methyl)-[1,1′-biphenyl]-2-carbonitrile] | < 200 | < 100 | < 5000 | – | 750 | – | – | –
3 | CN1CCCN(Cc2ccc(-c3ccc(CN4CCCN(C)CC4)cc3C#N)cc2)CC1 [Example 14, 4,4′-bis((4-methyl-1,4-diazepan-1-yl)methyl)-[1,1′-biphenyl]-2-carbonitrile] | < 100 | < 50 | < 5000 | – | – | – | – | –
4 | CN1CCCN(Cc2ccc(-c3ccc(CN4CCCN(C)CC4)cc3C#N)c(C#N)c2)CC1 [Example 56, 4,4′-bis((4-methyl-1,4-diazepan-1-yl)methyl)-[1,1′-biphenyl]-2,2′-dicarbonitrile] | – | – | – | – | – | < 100 | < 100 | < 20000
5 | CN1CCCN(Cc2ccc(-c3ccc(CN4CCCN(C)CC4)c(F)c3F)cc2)CC1 [Example 41, 4,4′-((2,3-difluoro-[1,1′-biphenyl]-4,4′-diyl)bis(methylene))bis(1-methyl-1,4-diazepane)] | < 100 | < 100 | < 5000 | – | – | – | – | –

Reference: patent US9834521B2, “Choline kinase inhibitors” (ARIAD Pharmaceuticals, Inc., priority 2013, dated 2017)
